{"source": "patent US9101567B2", "about": "“Suppression of cancer growth and metastasis using nordihydroguaiaretic acid derivatives with 7-hydroxystaurosporine” (The Johns Hopkins University, priority 2010, dated 2015)", "key": {"caspase-3 and 9": {"system": "caspase-3 and 9", "test": "Western blotting of cleaved caspase-3 and 9 in LNCaP cells", "assay_type": "cell-based, human", "conditions": "17 hrs, M4N 80 μM, etoposide 10 μM, rapamycin 10 μM, UCN-01 2 μM", "description": "(§1) The sample volumes were adjusted by the total protein amount. Protein assay was performed by Bio-Rad Protein Assay (Bio-Rad Laboratories, Inc. Hercules, Calif.). The samples were resolved by the standard SDS-polyacrylamide gel electrophoresis and transferred to nitrocellulose membrane (Amersham Biosciences, Bjorkgatan, Sweden). The membranes were blocked with skim milk, and incubated with primary antibodies at 4° C. overnight and then with secondary antibody conjugated with horse radish peroxidase at room temperature for 2 hrs. The signals were detected by western blot chemiluminescence reagent plus (New England Nuclear Life Science Products, Boston, Mass.).\n(§2) The efficacy of the combination treatment of M4N with three anticancer drugs, etoposide, rapamycin, and UCN-01 to induce cell death was examined for LNCaP human prostate cancer cells with TUNEL assay. We chose these anticancer drugs trying to diversify the mechanisms in which the anticancer drugs work (43-45). […] Additionally the effect of caspase-3 and 7 inhibitor, zDEVD-fmk on the cell death induced by the combination treatment was examined (FIG. 1E)."}, "LNCaP tumors": {"system": "LNCaP tumors", "test": "Nude mice orthotopically implanted with LNCaP tumors: life-span and lung metastasis", "assay_type": "in vivo, nude (nu/nu) mice", "conditions": "LNCaP tumor-bearing nude mice; lung sections, hematoxylin and eosin", "quoted_text": "T-cell deficient male nude mice (nu/nu) were obtained from Charles River Laboratories (Wilmington, Mass.). […] For drug combinations (M4N/etoposide, M4N/rapamycin, and M4N/UCN-01), etoposide, rapamycin, or UCN-01 powder was further added to M4N in CPE 25/30 to make a final concentration of M4N (10 mg/ml) respectively with etoposide (4 mg/ml), rapamycin (3.75 mg/ml), or UCN-01 (884 g/ml) in CPE 25/30 formulation. These drugs were intravenously injected into the tail vein of mice at the daily dose of 0.1 ml per mouse. Therefore dosages of each injection were 1 mg/shot (for M4N), 0.4 mg/shot (for etoposide), 0.375 mg/shot (for rapamycin), and 88.4 μg/shot (for UCN-01). The drug injections were performed once every day; beginning at day 3 until day 31 after tumor inoculation for the combination treatment with either etoposide or rapamycin and until day 25 after tumor inoculation for the combination treatment with UCN-01. After this the drugs were injected once a week for etoposide/rapamycin combination treatment and once every three days until day 35 for UCN-01 combination treatment.\nLNCaP cells growing subconfluently were collected into the tissue culture medium without fetal bovine serum and antibiotics. The cell concentration was adjusted by the same medium. […]"}, "caspase-7 [1]": {"system": "caspase-7", "test": "Western blotting of caspase-7 cleavage in HepG2 cells", "assay_type": "cell-based, human", "conditions": "HepG2, 17 hrs; M4N 80 μM, etoposide 20 μM, rapamycin 20 μM, UCN-01 5 μM", "description": "as §1\nThe effect of the combination treatments on cell death and autophagy was examined in two cell lines other than LNCaP cells."}, "caspase-7 [2]": {"system": "caspase-7", "test": "Enzymatic assay for caspase-7 in extracts of treated LNCaP cells", "assay_type": "cell-based, human", "conditions": "extracts of LNCaP cells treated for 13 hrs", "description": "The enzymatic assay specific for caspase-7 was performed using a CaspSELECT caspase-7 immunoassay kit (BioVision, Mountain View, Calif.). This assay is based on the […] assay with DEVD-afc. Since DEVD-afc can be a substrate for either caspase-3 or 7, only caspase-7 is selected from cell extracts by anti-caspase-7 antibody which is coated on microtiter plates. Briefly the microtiter plates were coated with anti-caspase-7 antibody overnight at 4 C and blocked with a blocking solution for 30 minutes at room temperature. The cell extracts were applied to the microtiter plates. After washing the microtiter plates, the substrate […] was added to the plates and incubated for about three hours. The fluorescence was measured by a microtiter plate fluorescence reader Infinite 200 (Tecan, Switzerland).\nas §2"}, "[3]": {"system": "LNCaP human prostate cancer cells", "test": "TUNEL assay of cell death in LNCaP cells", "assay_type": "cell-based", "conditions": "24 hrs, z-DEVD-fmk 50 μM", "source_text": "LNCaP human prostate cancer, DU145 human prostate cancer, PC3 human prostate cancer, MCF-7 human breast cancer, MDA-MB-231 human breast cancer, MDA-MB-468 human breast cancer, HT29 human colon cancer, K562 human myelogenous leukaemia, HepG2 human hepatoma, Hep3B human hepatoma, and LN229 human glioblastoma cancer cell lines were purchased from American Type Culture Collection (Manassas, Va.). OC24 human ascites ovarian cancer cell line was a generous gift from Dr. XXX (Johns Hopkins University, MD). LNCaP cell line was cultured in RPMI1640 medium supplemented with glucose (14 mM), pyruvate (1 mM), and fetal bovine serum (FBS) (10%). DU145 cell line was cultured in MEM supplemented with non-essential amino acids, glucose (21 mM), pyruvate (1 mM), and FBS (10%). PC3 cell line was cultured in F-12K medium supplemented with FBS (10%). MCF-7 cell line was cultured in DMEM supplemented with FBS (10%). OC24 cell line was cultured in RPMI1640 medium supplemented with FBS (10%) as suspension culture. MDA-MB-231 and 468 cell lines were cultured in Leibovitz's L15 medium supplemented with FBS (10%) under air. HT29 cell line was cultured in DMEM supplemented with glucose (25 mM) and FBS (10%). K562 cell line was cultured in RPMI1640 supplemented with FBS (10%). HepG2 and Hep3B cell lines were cultured in MEM supplemented with FBS (10%). LN229 cell line was cultured in DMEM supplemented with FBS (5%). […]"}}, "data": [{"smiles": "COc1cc([C@@H]2c3cc4c(cc3[C@@H](O[C@@H]3O[C@@H]5CO[C@@H](C)O[C@H]5[C@H](O)[C@H]3O)[C@H]3COC(=O)[C@H]23)OCO4)cc(OC)c1O", "note": "[etoposide]", "values": [{"measurement": "expression of cleaved caspase-3 and 9", "setting": "caspase-3 and 9", "value": "didn't induce the cleavage"}, {"measurement": "mice with obvious lung metastasis (histology)", "setting": "LNCaP tumors", "value": "3 out of 5"}, {"measurement": "caspase-7 cleavage product", "setting": "caspase-7 [1]", "value": "small amount"}, {"measurement": "caspase-7 activation (enzymatic activity)", "setting": "caspase-7 [2]", "value": "only a small amount"}]}, {"smiles": "COC(=O)CC[C@H](NC(=O)[C@H](CC(=O)OC)NC(=O)OCc1ccccc1)C(=O)N[C@H](C(=O)N[C@@H](CC(=O)OC)C(=O)CF)C(C)C", "note": "[zDEVD-fmk]", "values": [{"measurement": "effect on TUNEL-positive cell death induced by the combination treatments", "setting": "[3]", "value": "inhibited a large portion of the cell death"}]}]}
